Legend:
Assay in all cases: Cell proliferation assay (Alamar Blue)
Assay type in all cases: cell-based
HCT-116 = settings: Homo sapiens, 96 h, HCT-116 cells, four days
Jurkat = settings: Homo sapiens, 96 h, Jurkat cells, four days
Procedure: (§1) A representative cell-proliferation assay protocol using Alamar Blue dye (stored at 4°C, use 20ul per well) is described hereafter. 96-well plate setup and compound treatment • a. Split and trypsinize cells. • b. Count cells using hemocytometer. • c. Plate 4,000-5,000 cells per well in 100 µl of medium and seed into a 96-well plate according to the following plate layout. Add cell culture medium only to wells B10 to B12. Wells B1 to B9 have cells but no compound added. [formula] [formula] • d. Add 100 µl of 2X drug dilution to each well in a concentration shown in the plate layout above. At the same time, add 100 µl of media into the control wells (wells B10 to B12). Total volume is 200 µl/well. • e. Incubate four (4) days at 37°C, 5% CO2 in a humidified incubator. • f. Add 20µl Alamar Blue reagent to each well. • g. Incubate for four (4) hours at 37°C, 5% CO2 in a humidified incubator. • h. Record fluorescence at an excitation wavelength of 544nm and emission wavelength of 590nm using a microplate reader.
(§2) In the assays, cells are cultured with a test compound for approximately four days, the dye then is added to the cells and fluorescence of […] dye is detected after approximately four hours. Different types of cells can be utilized in the assays (e.g., HCT-116 human colorectal carcinoma cells, PC-3 human prostatic cancer cells and MiaPaca human pancreatic carcinoma cells). Anti-proliferative effects of representative compounds are provided hereafter.

MiaPaCa = settings: Homo sapiens, MIA PaCa-2, 96 h, MiaPaCa cells, four days
Procedure: as §1, §2

MDAMB231 = settings: Homo sapiens, MDA-MB-231, 96 h, MDAMB231 cells, four days
Procedure: as §1, §2

## Cc1cccc(Nc2nc3cc(C(=O)O)ccc3c3cnccc23)c1 [drawing 356]
HCT-116
  IC50: > 10 µM
Jurkat
  IC50: 3.45 µM
MiaPaCa
  IC50: 8.33 µM

## O=C(O)c1ccc2c(c1)nc(Nc1cccc(C(F)(F)F)c1)c1ccncc12 [drawing 357]
HCT-116
  IC50: 5.14 µM
Jurkat
  IC50: 3.15 µM
MiaPaCa
  IC50: 8.55 µM

## O=C(O)c1ccc2c(c1)nc(Nc1cc(F)cc(F)c1)c1nc(NC3CC3)ncc12 [drawing 358]
HCT-116
  IC50: > 10 µM
Jurkat
  IC50: 6.02 µM
MiaPaCa
  IC50: 2.32 µM

## O=C(O)c1ccc2c(c1)nc(Nc1cccc(F)c1)c1nc(NC3CC3)ncc12 [drawing 359]
HCT-116
  IC50: > 10 µM
Jurkat
  IC50: 3.56 µM
MiaPaCa
  IC50: 3.27 µM

## COc1cccc(Nc2nc3cc(C(=O)O)ccc3c3cnc(NC4CC4)nc23)c1 [drawing 360]
HCT-116
  IC50: > 10 µM
Jurkat
  IC50: 3.44 µM
MiaPaCa
  IC50: 2.85 µM

## CN(C)CCNc1ncc2c(n1)c(Nc1ccc(F)c(Cl)c1)nc1cc(C(=O)O)ccc12 [drawing 361]
HCT-116
  IC50: > 10 µM
Jurkat
  IC50: 1.25 µM
MiaPaCa
  IC50: 2.14 µM

## O=C(O)c1ccc2c(c1)nc(Nc1ccc(F)c(Cl)c1)c1nc(NCc3ccccn3)ncc12 [drawing 362]
HCT-116
  IC50: > 10 µM
Jurkat
  IC50: 2.59 µM
MiaPaCa
  IC50: 8.21 µM

## COC(CNc1ncc2c(n1)c(Nc1ccc(F)c(Cl)c1)nc1cc(C(=O)O)ccc12)OC [drawing 363]
HCT-116
  IC50: > 10 µM
Jurkat
  IC50: 1.12 µM
MiaPaCa
  IC50: 3.41 µM

## NC(=O)c1ccc2c(c1)nc(Nc1cccc(C(F)(F)F)c1)c1nc(NC3CC3)ncc12 [drawing 364]
HCT-116
  IC50: > 10 µM
Jurkat
  IC50: 1.16 µM
MiaPaCa
  IC50: 3.97 µM

## CNC(=O)c1ccc2c(c1)nc(Nc1cccc(C(F)(F)F)c1)c1nc(NC3CC3)ncc12 [drawing 366]
HCT-116
  IC50: > 10 µM
Jurkat
  IC50: 3.65 µM
MiaPaCa
  IC50: 11.9 µM

## O=C(O)c1ccc2c(c1)nc(Nc1ccc(F)c(Cl)c1)c1nc(NCc3cccnc3)ncc12 [drawing 367]
HCT-116
  IC50: > 10 µM
Jurkat
  IC50: 1.5 µM
MiaPaCa
  IC50: 1.97 µM

## O=C(O)c1ccc2c(c1)nc(Nc1ccc(F)c(Cl)c1)c1nc(NCc3ccncc3)ncc12 [drawing 368]
HCT-116
  IC50: > 10 µM
Jurkat
  IC50: 5.11 µM
MiaPaCa
  IC50: 4.5 µM

## O=C(O)c1ccc2c(c1)nc(Nc1ccccc1)c1nc(Nc3ccccc3)ncc12 [drawing 369]
HCT-116
  IC50: > 10 µM
Jurkat
  IC50: 8.98 µM
MiaPaCa
  IC50: 5.12 µM

## CCOC(=O)CCNC(=O)c1ccc2c(c1)nc(Nc1cccc(C(F)(F)F)c1)c1nc(NC3CC3)ncc12 [drawing 371]
HCT-116
  IC50: > 10 µM
Jurkat
  IC50: 3.75 µM
MiaPaCa
  IC50: 0.33 µM

## O=C(O)c1ccc2c(c1)nc(Nc1ccc(F)c(Cl)c1)c1ncncc12 [drawing 374]
MDAMB231
  IC50: 1.11 µM

## O=C(O)c1ccc2c(c1)nc(Nc1ccccc1)c1nc(NC3CC3)ncc12 [drawing 389]
MDAMB231
  IC50: 0.73 µM

## CCCNc1ncc2c(n1)c(Nc1ccccc1)nc1cc(C(=O)O)ccc12 [drawing 390]
MDAMB231
  IC50: 18.2 µM

## COCCNc1ncc2c(n1)c(Nc1ccccc1)nc1cc(C(=O)O)ccc12 [drawing 391]
MDAMB231
  IC50: 24.4 µM

## O=C(O)c1ccc2c(c1)nc(Nc1ccccc1)c1nc(NCCO)ncc12 [drawing 392]
MDAMB231
  IC50: > 50 µM

## O=C(O)c1ccc2c(c1)nc(Nc1ccccc1)c1nc(NCCCO)ncc12 [drawing 393]
MDAMB231
  IC50: 48.2 µM

## O=C(O)c1ccc2c(c1)nc(Nc1ccccc1)c1nc(NC3CCNCC3)ncc12 [drawing 394]
MDAMB231
  IC50: > 50 µM

## CCN(CC)CCNc1ncc2c(n1)c(Nc1ccccc1)nc1cc(C(=O)O)ccc12 [drawing 395]
MDAMB231
  IC50: 10.5 µM

## O=C(O)c1ccc2c(c1)nc(Nc1ccccc1)c1nc(NCCN3CCOCC3)ncc12 [drawing 396]
MDAMB231
  IC50: 2.44 µM

## O=C(O)c1ccc2c(c1)nc(Nc1ccccc1)c1nc(NCCCN3CCOCC3)ncc12 [drawing 397]
MDAMB231
  IC50: > 50 µM

## C#Cc1cccc(Nc2nc3cc(C(=O)O)ccc3c3cnc(NC4CC4)nc23)c1 [drawing 398]
MDAMB231
  IC50: 4.9 µM

## C#Cc1cccc(Nc2nc3cc(C(=O)O)ccc3c3cnc(NCCC)nc23)c1 [drawing 399]
MDAMB231
  IC50: 10.4 µM

## C#Cc1cccc(Nc2nc3cc(C(=O)O)ccc3c3cnc(NCCOC)nc23)c1 [drawing 400]
MDAMB231
  IC50: 4.74 µM

## C#Cc1cccc(Nc2nc3cc(C(=O)O)ccc3c3cnc(NC4CCNCC4)nc23)c1 [drawing 401]
MDAMB231
  IC50: > 50 µM

## C#Cc1cccc(Nc2nc3cc(C(=O)O)ccc3c3cnc(NCCCN4CCOCC4)nc23)c1 [drawing 402]
MDAMB231
  IC50: 12.5 µM

## C#Cc1cccc(Nc2nc3cc(C(=O)O)ccc3c3cnc(NC)nc23)c1 [drawing 403]
MDAMB231
  IC50: 5.21 µM

## O=C(O)c1ccc2c(c1)nc(Nc1ccc(Cl)c(C(F)(F)F)c1)c1ccncc12 [drawing 404]
MDAMB231
  IC50: 4.43 µM

## O=C(O)c1ccc2c(c1)nc(Nc1cccc(Cl)c1)c1nc(NC3CC3)ncc12 [drawing 405]
MDAMB231
  IC50: 3.93 µM

## O=C(O)c1ccc2c(c1)nc(Nc1cccc(C(F)(F)F)c1)c1ncncc12 [drawing 406]
MDAMB231
  IC50: 2.93 µM

## CCOc1ncc2c(n1)c(Nc1cccc(C(F)(F)F)c1)nc1cc(C(=O)O)ccc12 [drawing 407]
MDAMB231
  IC50: 26.5 µM

## CNc1ncc2c(n1)c(Nc1cccc(Cl)c1)nc1cc(C(=O)O)ccc12 [drawing 408]
MDAMB231
  IC50: 8.28 µM

## CN(C)c1ncc2c(n1)c(Nc1cccc(Cl)c1)nc1cc(C(=O)O)ccc12 [drawing 409]
MDAMB231
  IC50: 9.82 µM

## Nc1ncc2c(n1)c(Nc1cccc(Cl)c1)nc1cc(C(=O)O)ccc12 [drawing 410]
MDAMB231
  IC50: 4.12 µM

## CC(C)Nc1ncc2c(n1)c(Nc1cccc(Cl)c1)nc1cc(C(=O)O)ccc12 [drawing 411]
MDAMB231
  IC50: 20.8 µM

## O=C(O)c1ccc2c(c1)nc(Nc1cccc(C(F)(F)F)c1)c1nc(NC3CC3)ncc12 [drawing 412]
MDAMB231
  IC50: 9.19 µM

## CCNc1ncc2c(n1)c(Nc1cccc(Cl)c1)nc1cc(C(=O)O)ccc12 [drawing 413]
MDAMB231
  IC50: 6.87 µM

## CNc1ncc2c(n1)c(Nc1ccc(F)c(Cl)c1)nc1cc(C(=O)O)ccc12 [drawing 414]
MDAMB231
  IC50: 15.8 µM

## Nc1ncc2c(n1)c(Nc1ccc(F)c(Cl)c1)nc1cc(C(=O)O)ccc12 [drawing 415]
MDAMB231
  IC50: 6.53 µM

## O=C(O)c1ccc2c(c1)nc(Nc1ccc(F)c(Cl)c1)c1nc(NC3CC3)ncc12 [drawing 416]
MDAMB231
  IC50: 7.12 µM

## COCCNc1ncc2c(n1)c(Nc1ccc(F)c(Cl)c1)nc1cc(C(=O)O)ccc12 [drawing 417]
MDAMB231
  IC50: 12.6 µM

## C#Cc1cccc(Nc2nc3cc(C(=O)O)ccc3c3cnc(NCCOCC)nc23)c1 [drawing 418]
MDAMB231
  IC50: 31.6 µM

## C#Cc1cccc(Nc2nc3cc(C(=O)O)ccc3c3cnc(NCCCOCC)nc23)c1 [drawing 419]
MDAMB231
  IC50: 5.22 µM

## C#Cc1cccc(Nc2nc3cc(C(=O)O)ccc3c3cnc(NCCCOC(C)C)nc23)c1 [drawing 420]
MDAMB231
  IC50: 7.05 µM

## O=C(O)c1ccc2c(c1)nc(Nc1cccc(Cl)c1)c1nc(O)ncc12 [drawing 421]
MDAMB231
  IC50: > 50 µM

## Cc1ncc2c(n1)c(Nc1cccc(Cl)c1)nc1cc(C(=O)O)ccc12 [drawing 422]
MDAMB231
  IC50: 5.48 µM

## C#Cc1cccc(Nc2nc3cc(C(=O)OC)ccc3c3cnc(NOC)nc23)c1 [drawing 423]
MDAMB231
  IC50: > 50 µM

## COC(=O)c1ccc2c(c1)nc(Nc1cccc(Cl)c1)c1nc(NCCC(N)=O)ncc12 [drawing 424]
MDAMB231
  IC50: 27.2 µM

## NC(=O)CCNc1ncc2c(n1)c(Nc1cccc(Cl)c1)nc1cc(C(=O)O)ccc12 [drawing 425]
MDAMB231
  IC50: > 50 µM

## O=C(O)CCNc1ncc2c(n1)c(Nc1cccc(Cl)c1)nc1cc(C(=O)O)ccc12 [drawing 426]
MDAMB231
  IC50: > 50 µM

## Cc1cccc(Nc2nc3cc(C(=O)O)ccc3c3cnccc23)c1 [drawing 427]
MDAMB231
  IC50: 17.5 µM

## O=C(O)c1ccc2c(c1)nc(Nc1cccc(C(F)(F)F)c1)c1ccncc12 [drawing 428]
MDAMB231
  IC50: 13 µM

## O=C(O)c1ccc2c(c1)nc(Nc1cc(F)cc(F)c1)c1nc(NC3CC3)ncc12 [drawing 429]
MDAMB231
  IC50: 23 µM

## O=C(O)c1ccc2c(c1)nc(Nc1cccc(F)c1)c1nc(NC3CC3)ncc12 [drawing 430]
MDAMB231
  IC50: 12.8 µM

## COc1cccc(Nc2nc3cc(C(=O)O)ccc3c3cnc(NC4CC4)nc23)c1 [drawing 431]
MDAMB231
  IC50: 20.1 µM
